Test results from paper PMC9558053, “Development of a novel high-throughput screen for the identification of new inhibitors of protein S-acylation” (The Journal of Biological Chemistry, 2022).

System: endogenous calnexin S-acylation in HEK293T cells
Test: mPEG-click S-acylation of endogenous calnexin in HEK293T cells
Type: cell-based, human
Conditions: 25 and 50 μM, 4 h pretreatment + 4 h labeling
Excerpt: Finally, we tested whether TTZ-1 and TTZ-2 were able to block the S-acylation of endogenous proteins in the absence of zDHHC enzyme overexpression. In order to detect the S-acylation of endogenous proteins, we used mPEG-click, a technique that we developed recently ([49]) that is better suited for the click chemistry–based analysis of S-acylation of endogenously expressed proteins. In this assay, cells are labeled with either palmitate (C16:0), or C16:0-azide, lysed, and then subjected to click chemistry with alkyne-mPEG 5K. The addition of mPEG 5K moieties to S-acylated proteins increases their apparent molecular weight, which can be detected directly by immunoblotting. HEK293T cells were pretreated for 4 h with either TTZ-1 or TTZ-2 at 25 and 50 μM and then labeled with fatty acids for another 4 h in the presence of the compounds. We first assessed the S-acylation of endogenous SNAP23 as it is a close relative of SNAP25 (SNAP25 is not expressed in the non-neuronal HEK293T cell line) ([50], [51]). […]
Figure 10 Activity of TTZ-1 and TTZ-2 against the S-acylation of endogenous proteins in mammalian cells. […] The data were quantified, and the graphs below each set of membranes show mean ± SEM of normalized S-acylation of either endogenous SNAP23 (A) or endogenous calnexin (B). […]

Row | SMILES | S-acylation of endogenous calnexin
1 | CCCCCCCOc1ccc(C(=O)Nc2cccc3c2OC(c2nnn[nH]2)CN3)cc1 (centres unmarked) [TTZ-1, N-(2-(1H-Tetrazol-5-yl)-3,4-dihydro-2H-benzo[b][1,4]oxazin-8-yl)-4-(heptyloxy)benzamide] | decreased
2 | O=C(Nc1cccc2c1OC(c1nnn[nH]1)CN2)c1ccc(OCCCCc2ccccc2)cc1 (centres unmarked) [TTZ-2, N-(2-(1H-Tetrazol-5-yl)-3,4-dihydro-2H-benzo[b][1,4]oxazin-8-yl)-4-(4-phenylbutoxy)benzamide] | decreased
